Inhibition data for 2 compounds are collected here from paper PMC3639963, “A New Class of Small Molecule Inhibitor of BMP Signaling” (PLoS ONE, 2013).

Holding throughout (experiment): Nanosyn kinase profiling
Holding throughout (assay type): biochemical
What all share (settings): read-out: Percentage inhibition; for inhibition at 0.1 µM: 0.1 µM inhibitor; for inhibition at 1 µM: 1 µM inhibitor

Assay [1] has as its target T1, MUSK (Homo sapiens, UniProt O15146).
T1 construct: purchased Nanosyn (enzymatic panel); SGC in-house recombinant human kinases (DSF panel); Invitrogen (ALK1-6)
T1 sequence (O15146 24-869): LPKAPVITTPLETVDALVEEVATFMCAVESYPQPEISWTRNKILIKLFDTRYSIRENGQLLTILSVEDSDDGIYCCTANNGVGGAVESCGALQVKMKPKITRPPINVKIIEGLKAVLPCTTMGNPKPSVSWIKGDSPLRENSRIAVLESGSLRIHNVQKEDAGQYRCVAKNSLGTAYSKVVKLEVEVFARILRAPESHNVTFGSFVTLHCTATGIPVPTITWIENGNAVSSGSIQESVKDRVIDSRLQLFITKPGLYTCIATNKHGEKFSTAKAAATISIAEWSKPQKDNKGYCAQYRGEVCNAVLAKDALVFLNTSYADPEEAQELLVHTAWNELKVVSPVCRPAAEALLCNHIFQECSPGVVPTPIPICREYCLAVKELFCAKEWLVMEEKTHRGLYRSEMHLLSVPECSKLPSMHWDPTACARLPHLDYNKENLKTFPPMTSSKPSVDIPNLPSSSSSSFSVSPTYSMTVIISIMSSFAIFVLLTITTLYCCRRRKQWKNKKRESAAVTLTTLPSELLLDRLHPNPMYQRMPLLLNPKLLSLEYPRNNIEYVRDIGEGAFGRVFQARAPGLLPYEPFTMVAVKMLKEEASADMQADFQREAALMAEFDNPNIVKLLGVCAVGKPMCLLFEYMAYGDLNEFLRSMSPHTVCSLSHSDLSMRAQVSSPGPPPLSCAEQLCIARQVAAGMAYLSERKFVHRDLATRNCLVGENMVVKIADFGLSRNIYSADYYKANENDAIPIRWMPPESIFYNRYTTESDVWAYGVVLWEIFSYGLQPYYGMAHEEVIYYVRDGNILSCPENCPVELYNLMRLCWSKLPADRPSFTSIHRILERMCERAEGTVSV
The method in brief:
(§1)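 Percent inhibition of each kinase was measured with the inhibitor at 0.1 µM and at 1 µM, as part of a 200-kinase human selectivity panel.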

The target of assay [2] is T2, AURKC (Homo sapiens, UniProt Q9UQB9).
T2 construct: purchased Nanosyn (enzymatic panel); SGC in-house recombinant human kinases (DSF panel); Invitrogen (ALK1-6)
T2 sequence (Q9UQB9 1-309): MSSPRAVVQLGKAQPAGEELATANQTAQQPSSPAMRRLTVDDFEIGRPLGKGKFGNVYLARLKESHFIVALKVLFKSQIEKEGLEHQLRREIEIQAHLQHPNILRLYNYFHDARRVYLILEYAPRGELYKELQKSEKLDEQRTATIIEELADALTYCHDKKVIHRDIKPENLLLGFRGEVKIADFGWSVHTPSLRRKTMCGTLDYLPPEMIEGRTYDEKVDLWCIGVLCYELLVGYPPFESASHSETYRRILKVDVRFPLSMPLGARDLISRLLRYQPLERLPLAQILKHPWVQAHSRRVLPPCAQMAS
Put shortly:
as §1

Assay [3] concerns the target T3, CDK2/cycE (Homo sapiens, UniProt P24941).
T3 construct: purchased Nanosyn (enzymatic panel); SGC in-house recombinant human kinases (DSF panel); Invitrogen (ALK1-6)
Put shortly:
as §1

Assay [4] has as its target T4, DDR2 (Homo sapiens, UniProt Q16832).
T4 construct: purchased Nanosyn (enzymatic panel); SGC in-house recombinant human kinases (DSF panel); Invitrogen (ALK1-6)
T4 sequence (Q16832 22-855): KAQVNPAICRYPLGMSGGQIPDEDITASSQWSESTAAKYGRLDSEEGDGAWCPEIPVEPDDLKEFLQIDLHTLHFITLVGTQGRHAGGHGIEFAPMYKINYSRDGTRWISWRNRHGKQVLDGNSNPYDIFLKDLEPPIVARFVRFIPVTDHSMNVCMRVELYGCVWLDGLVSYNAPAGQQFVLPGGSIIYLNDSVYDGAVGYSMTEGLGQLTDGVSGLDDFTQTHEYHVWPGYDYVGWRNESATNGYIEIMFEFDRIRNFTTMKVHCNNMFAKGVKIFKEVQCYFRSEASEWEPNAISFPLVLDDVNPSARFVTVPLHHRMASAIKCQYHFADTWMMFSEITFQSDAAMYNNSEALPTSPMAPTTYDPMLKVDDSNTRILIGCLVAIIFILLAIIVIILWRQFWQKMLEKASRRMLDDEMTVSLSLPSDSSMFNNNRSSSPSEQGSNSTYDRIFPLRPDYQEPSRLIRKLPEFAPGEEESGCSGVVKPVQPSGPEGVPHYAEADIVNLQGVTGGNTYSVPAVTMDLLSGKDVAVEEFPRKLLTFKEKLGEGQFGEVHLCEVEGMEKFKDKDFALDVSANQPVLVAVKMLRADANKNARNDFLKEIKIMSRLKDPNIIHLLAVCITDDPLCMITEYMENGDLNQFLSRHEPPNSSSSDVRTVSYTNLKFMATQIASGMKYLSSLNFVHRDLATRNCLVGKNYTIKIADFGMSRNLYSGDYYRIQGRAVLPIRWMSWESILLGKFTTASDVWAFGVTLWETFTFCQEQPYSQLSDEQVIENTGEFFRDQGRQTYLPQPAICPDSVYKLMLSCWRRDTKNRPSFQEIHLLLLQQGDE
The method in brief: as §1

In assay [5] the target is T5, CAMK1δ (Homo sapiens, UniProt Q8IU85).
T5 construct: purchased Nanosyn (enzymatic panel); SGC in-house recombinant human kinases (DSF panel); Invitrogen (ALK1-6)
T5 sequence (Q8IU85 whole entry): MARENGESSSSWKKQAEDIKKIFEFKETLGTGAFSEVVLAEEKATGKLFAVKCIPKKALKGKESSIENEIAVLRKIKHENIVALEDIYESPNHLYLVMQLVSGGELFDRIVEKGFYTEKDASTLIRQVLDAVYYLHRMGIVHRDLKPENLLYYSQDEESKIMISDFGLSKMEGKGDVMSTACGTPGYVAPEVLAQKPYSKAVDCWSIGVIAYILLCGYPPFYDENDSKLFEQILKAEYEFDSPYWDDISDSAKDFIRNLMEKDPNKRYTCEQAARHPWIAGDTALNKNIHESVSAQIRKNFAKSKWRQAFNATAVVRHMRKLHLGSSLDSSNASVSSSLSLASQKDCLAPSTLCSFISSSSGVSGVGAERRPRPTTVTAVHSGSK
Put shortly:
as §1

The target of assay [6] is T6, P38α (Homo sapiens, UniProt Q16539).
T6 construct: purchased Nanosyn (enzymatic panel); SGC in-house recombinant human kinases (DSF panel); Invitrogen (ALK1-6)
T6 sequence (Q16539 whole entry): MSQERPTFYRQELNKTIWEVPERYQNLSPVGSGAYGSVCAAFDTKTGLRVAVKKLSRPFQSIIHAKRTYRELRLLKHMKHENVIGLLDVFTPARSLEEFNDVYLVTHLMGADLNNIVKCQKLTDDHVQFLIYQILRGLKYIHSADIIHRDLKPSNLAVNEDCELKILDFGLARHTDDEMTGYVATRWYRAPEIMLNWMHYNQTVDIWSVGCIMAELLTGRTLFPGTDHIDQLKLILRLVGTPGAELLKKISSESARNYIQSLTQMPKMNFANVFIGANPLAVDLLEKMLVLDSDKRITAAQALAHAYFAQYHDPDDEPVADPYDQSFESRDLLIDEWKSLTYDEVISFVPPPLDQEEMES
Put shortly: as §1

Assay [7] concerns the target T7, LYNB (Homo sapiens, UniProt P07948).
T7 construct: purchased Nanosyn (enzymatic panel); SGC in-house recombinant human kinases (DSF panel); Invitrogen (ALK1-6)
Put shortly:
as §1

For assay [8], the target named is T8, PKCγ (Homo sapiens, UniProt P05129).
T8 construct: purchased Nanosyn (enzymatic panel); SGC in-house recombinant human kinases (DSF panel); Invitrogen (ALK1-6)
The method in brief: as §1

The target in assay [9] is T9, AMPKα1 (Homo sapiens, UniProt Q13131).
T9 construct: purchased Nanosyn (enzymatic panel); SGC in-house recombinant human kinases (DSF panel); Invitrogen (ALK1-6)
Put shortly:
as §1

The target of assay [10] is T10, P70S6KB1 (Homo sapiens, UniProt P23443).
T10 construct: purchased Nanosyn (enzymatic panel); SGC in-house recombinant human kinases (DSF panel); Invitrogen (ALK1-6)
T10 sequence (P23443 whole entry): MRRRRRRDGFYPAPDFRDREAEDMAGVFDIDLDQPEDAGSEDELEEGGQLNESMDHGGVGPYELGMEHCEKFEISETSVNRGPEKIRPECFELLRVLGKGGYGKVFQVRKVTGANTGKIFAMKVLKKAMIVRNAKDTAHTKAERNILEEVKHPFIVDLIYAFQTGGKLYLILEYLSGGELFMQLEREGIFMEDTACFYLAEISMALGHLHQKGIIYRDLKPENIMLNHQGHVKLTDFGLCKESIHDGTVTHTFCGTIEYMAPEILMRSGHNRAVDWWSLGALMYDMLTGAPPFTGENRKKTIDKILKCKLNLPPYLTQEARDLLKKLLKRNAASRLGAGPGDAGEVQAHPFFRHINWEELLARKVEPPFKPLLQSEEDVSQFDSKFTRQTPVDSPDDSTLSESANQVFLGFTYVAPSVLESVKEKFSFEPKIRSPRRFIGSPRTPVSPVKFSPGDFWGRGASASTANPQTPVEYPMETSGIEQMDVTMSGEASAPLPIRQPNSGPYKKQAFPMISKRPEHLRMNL
Put shortly: as §1

Assay [11] deals with T11, MET (Homo sapiens, UniProt P08581).
T11 construct: purchased Nanosyn (enzymatic panel); SGC in-house recombinant human kinases (DSF panel); Invitrogen (ALK1-6)
T11 sequence (P08581 25-1390): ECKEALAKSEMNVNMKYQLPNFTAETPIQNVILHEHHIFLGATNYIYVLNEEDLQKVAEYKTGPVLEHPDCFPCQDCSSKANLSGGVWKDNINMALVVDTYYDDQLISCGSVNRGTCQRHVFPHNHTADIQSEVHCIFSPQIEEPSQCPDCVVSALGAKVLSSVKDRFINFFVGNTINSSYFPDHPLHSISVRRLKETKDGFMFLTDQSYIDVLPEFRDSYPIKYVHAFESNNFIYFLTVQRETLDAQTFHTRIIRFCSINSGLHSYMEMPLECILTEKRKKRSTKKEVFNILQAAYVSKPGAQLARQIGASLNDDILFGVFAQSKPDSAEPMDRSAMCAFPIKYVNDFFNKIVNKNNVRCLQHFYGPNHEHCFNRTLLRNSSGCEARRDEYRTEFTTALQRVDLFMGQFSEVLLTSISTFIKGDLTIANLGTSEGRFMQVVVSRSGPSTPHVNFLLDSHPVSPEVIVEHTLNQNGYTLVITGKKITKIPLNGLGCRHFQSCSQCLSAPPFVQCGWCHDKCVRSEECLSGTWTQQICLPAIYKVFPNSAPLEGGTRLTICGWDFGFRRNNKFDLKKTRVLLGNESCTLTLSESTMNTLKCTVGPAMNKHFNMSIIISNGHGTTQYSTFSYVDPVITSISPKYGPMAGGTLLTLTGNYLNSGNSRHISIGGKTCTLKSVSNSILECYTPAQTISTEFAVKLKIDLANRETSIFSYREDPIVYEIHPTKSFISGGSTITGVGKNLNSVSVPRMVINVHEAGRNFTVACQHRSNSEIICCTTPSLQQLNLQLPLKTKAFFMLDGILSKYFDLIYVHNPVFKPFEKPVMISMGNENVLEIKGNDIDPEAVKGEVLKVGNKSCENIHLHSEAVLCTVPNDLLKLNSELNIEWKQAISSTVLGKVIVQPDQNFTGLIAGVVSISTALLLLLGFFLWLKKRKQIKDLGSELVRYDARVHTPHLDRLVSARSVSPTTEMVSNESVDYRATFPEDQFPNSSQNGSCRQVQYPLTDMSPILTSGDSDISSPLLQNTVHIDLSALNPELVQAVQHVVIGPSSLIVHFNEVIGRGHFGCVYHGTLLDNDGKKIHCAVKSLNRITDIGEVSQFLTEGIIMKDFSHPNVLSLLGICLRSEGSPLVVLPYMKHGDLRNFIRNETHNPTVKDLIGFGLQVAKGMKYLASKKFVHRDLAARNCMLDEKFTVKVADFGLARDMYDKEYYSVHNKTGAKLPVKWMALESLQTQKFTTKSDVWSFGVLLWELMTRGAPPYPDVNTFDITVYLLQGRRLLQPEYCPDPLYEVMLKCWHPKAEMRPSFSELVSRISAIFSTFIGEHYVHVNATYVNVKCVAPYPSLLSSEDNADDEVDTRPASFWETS
Put shortly: as §1

Assay [12] concerns the target T12, JAK1 (Homo sapiens, UniProt P23458).
T12 construct: purchased Nanosyn (enzymatic panel); SGC in-house recombinant human kinases (DSF panel); Invitrogen (ALK1-6)
The method in brief: as §1

T7 sequence (P07948 1-491 isoform P07948-2): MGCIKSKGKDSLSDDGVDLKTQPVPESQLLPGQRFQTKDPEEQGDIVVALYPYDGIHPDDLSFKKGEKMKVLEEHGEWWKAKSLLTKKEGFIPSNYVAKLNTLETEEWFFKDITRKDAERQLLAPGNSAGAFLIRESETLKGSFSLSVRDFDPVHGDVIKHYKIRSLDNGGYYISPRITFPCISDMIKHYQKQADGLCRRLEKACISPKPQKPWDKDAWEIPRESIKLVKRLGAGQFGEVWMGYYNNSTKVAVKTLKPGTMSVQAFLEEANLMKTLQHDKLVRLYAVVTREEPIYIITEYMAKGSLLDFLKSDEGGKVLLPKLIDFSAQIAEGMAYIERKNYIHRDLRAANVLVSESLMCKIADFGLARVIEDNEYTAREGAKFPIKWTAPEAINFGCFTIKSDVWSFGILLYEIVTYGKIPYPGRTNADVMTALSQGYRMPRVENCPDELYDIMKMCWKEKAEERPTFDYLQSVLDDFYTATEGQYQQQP
T12 sequence (P23458 whole entry): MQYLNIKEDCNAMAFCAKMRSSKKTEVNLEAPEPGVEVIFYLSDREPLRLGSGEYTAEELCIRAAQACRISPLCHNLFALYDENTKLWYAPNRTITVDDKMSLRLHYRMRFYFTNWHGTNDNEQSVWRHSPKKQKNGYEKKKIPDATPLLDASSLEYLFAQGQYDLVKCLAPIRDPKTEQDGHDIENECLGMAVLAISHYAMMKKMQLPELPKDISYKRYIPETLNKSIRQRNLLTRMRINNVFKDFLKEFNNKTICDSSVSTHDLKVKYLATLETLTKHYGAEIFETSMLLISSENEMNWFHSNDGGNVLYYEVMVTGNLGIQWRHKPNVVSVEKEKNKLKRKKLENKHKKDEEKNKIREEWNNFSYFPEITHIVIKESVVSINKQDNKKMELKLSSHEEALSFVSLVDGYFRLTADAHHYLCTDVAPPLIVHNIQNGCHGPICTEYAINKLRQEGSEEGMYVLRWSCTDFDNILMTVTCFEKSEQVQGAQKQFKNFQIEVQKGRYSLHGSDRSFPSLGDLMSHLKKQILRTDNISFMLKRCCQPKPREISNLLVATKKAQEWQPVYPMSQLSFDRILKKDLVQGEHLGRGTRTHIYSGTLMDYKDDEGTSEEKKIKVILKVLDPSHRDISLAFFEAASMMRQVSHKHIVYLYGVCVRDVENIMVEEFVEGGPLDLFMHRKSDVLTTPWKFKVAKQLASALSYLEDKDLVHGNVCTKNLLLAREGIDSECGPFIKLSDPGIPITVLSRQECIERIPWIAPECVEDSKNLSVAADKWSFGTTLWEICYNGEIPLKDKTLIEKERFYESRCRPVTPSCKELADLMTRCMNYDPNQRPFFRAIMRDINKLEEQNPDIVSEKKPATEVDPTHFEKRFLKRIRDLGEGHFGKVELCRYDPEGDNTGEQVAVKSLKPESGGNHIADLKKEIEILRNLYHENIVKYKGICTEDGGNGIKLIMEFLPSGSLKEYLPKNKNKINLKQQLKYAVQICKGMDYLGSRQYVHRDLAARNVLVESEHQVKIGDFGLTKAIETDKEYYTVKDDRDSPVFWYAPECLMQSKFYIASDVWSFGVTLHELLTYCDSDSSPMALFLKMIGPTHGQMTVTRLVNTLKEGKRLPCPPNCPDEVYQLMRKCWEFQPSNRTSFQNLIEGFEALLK

On to `c1ccc2c(-c3cnn4cc(-c5ccc(N6CCNCC6)cc5)cnc34)ccnc2c1` [LDN-193189], for which the inhibition at 0.1 µM in assay [1] was 5.8%; in assay [2], 4.2%; in [3], 2.8%; in assay [4], 5.5%; in assay [5], 0.8%; in assay [6] it was 4.4%. Also, the inhibition at 0.1 µM in assay [7] amounted to 7.4%; in [8] it was 2.1%; in [9] it was 5.2%; in assay [10], 1%; in assay [11] it was 6.2%; in [12] it was 2.7%. Also, the inhibition at 1 µM in assay [1] is 26%; in assay [2], 25%; in assay [3], 5.3%; in assay [4], 27%; in assay [5], 0.9%; in assay [6], 3.3%. The inhibition at 1 µM turned out to be 34% in [7]; 4.1% in assay [8]; 23% in assay [9]; 0.6% in assay [10]; 8.4% in [11]; 4.2% in [12].

For `COc1cc(-c2cc(-c3cccc(O)c3)cnc2N)cc(OC)c1OC` [K02288, 3-[6-amino-5-(3,4,5-trimethoxy-phenyl)-pyridin-3-yl]-phenol], the inhibition at 0.1 µM is 1.2% in assay [1]; -1% in assay [2]; 0.2% in [3]; 0% in assay [4]; -2% in assay [5]; -3% in assay [6]. In addition, the inhibition at 0.1 µM in assay [7] is 6%; in assay [8], -4%; in assay [9], -1%; in assay [10] it was -2%; in [11], 0.6%; in [12] it was 0%. Besides, the inhibition at 1 µM in assay [1] was -1%; in [2], 3.2%; in assay [3], 1.5%; in assay [4], 11%; in assay [5] it was -1%; in assay [6], 1.5%. The inhibition at 1 µM in [7] was 43%; in [8], -1%; in assay [9], 0%; in [10], -1%; in [11], -2%; in assay [12] it was 0.4%.
